# Measurements: PubChem BioAssay AID180 (DTP/NCI, 2004)
# Values joined by “and” are separate entries in the source; they are usually repeats but may differ in a detail not shown here. Equal entries are not always repeated.
# Test system: BDF1 mice, Adenocarcinoma 755 s.c., tumor weight T/C
# Assay: NCI In Vivo Anticancer Drug Screen. Data for tumor model Adenocarcinoma 755 (subcutaneous) in B6D2F1 (BDF1) mice
# Settings: endpoint: mean tumor weight, higher = larger tumour
# Procedure: The antitumor activity of compounds was measured in mice bearing transplantable tumors. Survival or tumor size were measured and the results are expressed as the measurement made in the treated group (T) divided by the measurement made in the vehicle treated control group (C). The tumor model used in this assay is Adenocarcinoma 755 (subcutaneous) in B6D2F1 (BDF1) mice
# [1] = dose: 30.0 mg/kg/injection, schedule: Q01DX011 (ip), vehicle: carboxymethylcellulose (CMC)
# [2] = dose: 60.0 mg/kg/injection, schedule: Q01DX011 (ip), vehicle: carboxymethylcellulose (CMC)
# [3] = dose: 225.0 mg/kg/injection, schedule: Q01DX011 (ip), vehicle: other
compound,measurement,setting,value
O=C1Cc2ccccc2C(=O)N1,T/C,"dose: 7.5 mg/kg/injection, schedule: Q01DX011 (ip), vehicle: carboxymethylcellulose (CMC)",79 % of control
same,T/C,"dose: 15.0 mg/kg/injection, schedule: Q01DX011 (ip), vehicle: carboxymethylcellulose (CMC)",104 % of control
same,T/C,[1],107 % of control
same,T/C,[2],56 % of control
OCn1cccn1,T/C,"dose: 20.0 mg/kg/injection, schedule: Q01DX011 (ip), vehicle: other",68 % of control
same,T/C,"dose: 20.0 mg/kg/injection, schedule: Q01DX011 (ip), vehicle: saline",89 % of control
same,T/C,"dose: 40.0 mg/kg/injection, schedule: Q01DX011 (ip), vehicle: other",23 % of control
same,T/C,"dose: 40.0 mg/kg/injection, schedule: Q01DX011 (ip), vehicle: saline",45 % of control
same,T/C,"dose: 80.0 mg/kg/injection, schedule: Q01DX011 (ip), vehicle: other",2 % of control
same,T/C,"dose: 80.0 mg/kg/injection, schedule: Q01DX011 (ip), vehicle: saline",27 % of control
same,T/C,"dose: 160.0 mg/kg/injection, schedule: Q01DX011 (ip), vehicle: saline",2 % of control
Cn1c(=O)c2[nH]c(/N=N/N3CCN(CCO)CC3)nc2n(C)c1=O,T/C,"dose: 75.0 mg/kg/injection, schedule: Q01DX011 (ip), vehicle: other",119 % of control
same,T/C,[3],92 % of control
C(=N\OCCc1ccccc1)/c1cccnc1,T/C,"dose: 88.0 mg/kg/injection, schedule: Q01DX011 (ip), vehicle: methylcellulose (MC)",70 % of control
Nc1nc(=S)cc(Nc2ccc(Cl)c(Cl)c2)[nH]1,T/C,"dose: 15.0 mg/kg/injection, schedule: Q01DX011 (ip), vehicle: methylcellulose (MC)",114 % of control
same,T/C,"dose: 31.0 mg/kg/injection, schedule: Q01DX011 (ip), vehicle: methylcellulose (MC)",92 % of control
CCCCOP(=S)(N1CC1)N1CC1,T/C,"dose: 0.19 mg/kg/injection, schedule: Q01DX011 (ip), vehicle: other",44 % of control
same,T/C,"dose: 0.19 mg/kg/injection, schedule: Q01DX011 (ip), vehicle: saline",102 % of control
same,T/C,"dose: 0.37 mg/kg/injection, schedule: Q01DX011 (ip), vehicle: other",38 % of control
same,T/C,"dose: 0.37 mg/kg/injection, schedule: Q01DX011 (ip), vehicle: saline",97 % of control
same,T/C,"dose: 0.75 mg/kg/injection, schedule: Q01DX011 (ip), vehicle: carboxymethylcellulose (CMC)",73 % of control
same,T/C,"dose: 0.75 mg/kg/injection, schedule: Q01DX011 (ip), vehicle: other",26 % of control
same,T/C,"dose: 0.75 mg/kg/injection, schedule: Q01DX011 (ip), vehicle: saline",113 % of control
same,T/C,"dose: 1.5 mg/kg/injection, schedule: Q01DX011 (ip), vehicle: carboxymethylcellulose (CMC)",78 % of control
same,T/C,"dose: 1.5 mg/kg/injection, schedule: Q01DX011 (ip), vehicle: other",14 % of control
same,T/C,"dose: 1.5 mg/kg/injection, schedule: Q01DX011 (ip), vehicle: saline",90 % of control
same,T/C,"dose: 3.0 mg/kg/injection, schedule: Q01DX011 (ip), vehicle: carboxymethylcellulose (CMC)",23 % of control
same,T/C,"dose: 3.0 mg/kg/injection, schedule: Q01DX011 (ip), vehicle: other",7 % of control
same,T/C,"dose: 3.0 mg/kg/injection, schedule: Q01DX011 (ip), vehicle: saline",42 % of control
same,T/C,"dose: 3.0 mg/kg/injection, schedule: Q## X000 (ip), vehicle: saline",460 % of control
same,T/C,"dose: 6.0 mg/kg/injection, schedule: Q## X000 (ip), vehicle: saline",153 % of control
same,T/C,"dose: 12.0 mg/kg/injection, schedule: Q## X000 (ip), vehicle: saline",23 % of control
Nc1ccc2cc3ccccc3cc2c1,T/C,"dose: 10.0 mg/kg/injection, schedule: Q01DX011 (ip), vehicle: saline",80 % of control
same,T/C,"dose: 10.5 mg/kg/injection, schedule: Q01DX011 (ip), vehicle: carboxymethylcellulose (CMC)",62 % of control
same,T/C,"dose: 21.0 mg/kg/injection, schedule: Q01DX011 (ip), vehicle: carboxymethylcellulose (CMC)",40 % of control
same,T/C,"dose: 21.0 mg/kg/injection, schedule: Q01DX011 (ip), vehicle: saline",41 % of control
same,T/C,"dose: 42.0 mg/kg/injection, schedule: Q01DX011 (ip), vehicle: saline",37 % of control
same,T/C,"dose: 84.0 mg/kg/injection, schedule: Q01DX011 (ip), vehicle: saline",29 % of control
CCCCNC(=O)c1n[se]nc1N,T/C,"dose: 2.0 mg/kg/injection, schedule: Q01DX011 (ip), vehicle: carboxymethylcellulose (CMC)",76 % of control
same,T/C,"dose: 4.0 mg/kg/injection, schedule: Q01DX011 (ip), vehicle: carboxymethylcellulose (CMC)",87 % of control
Nc1nc(N)c(N)c(Nc2ccc(Br)cc2)n1,T/C,"dose: 15.0 mg/kg/injection, schedule: Q01DX011 (ip), vehicle: saline",91 % of control
same,T/C,"dose: 31.0 mg/kg/injection, schedule: Q01DX011 (ip), vehicle: saline",32 % of control
Nc1ncc(N)c(N)n1,T/C,[1],89 % of control
same,T/C,[2],116 % of control
same,T/C,"dose: 120.0 mg/kg/injection, schedule: Q01DX011 (ip), vehicle: carboxymethylcellulose (CMC)",111 % of control
same,T/C,"dose: 240.0 mg/kg/injection, schedule: Q01DX011 (ip), vehicle: carboxymethylcellulose (CMC)",96 % of control
CC(=O)Nc1c(Cl)c(Cl)c2c(c1Cl)Cc1cc(Cl)ccc1-2,T/C,"dose: 27.0 mg/kg/injection, schedule: Q01DX011 (ip), vehicle: acetone",87 % of control
same,T/C,"dose: 55.0 mg/kg/injection, schedule: Q01DX011 (ip), vehicle: acetone",31 % of control
same,T/C,"dose: 110.0 mg/kg/injection, schedule: Q01DX011 (ip), vehicle: other",46 % of control
same,T/C,"dose: 110.0 mg/kg/injection, schedule: Q01DX011 (ip), vehicle: saline",31 % of control
same,T/C,[3],32 % of control
same,T/C,"dose: 225.0 mg/kg/injection, schedule: Q01DX011 (ip), vehicle: saline",8 % of control
same,T/C,"dose: 450.0 mg/kg/injection, schedule: Q01DX011 (ip), vehicle: other",19 % of control
COc1cc2c(c(OC)c1OC)-c1ccc(N)c(=O)cc1[C@@H](NC(C)=O)CC2,T/C,"dose: 0.5 mg/kg/injection, schedule: Q01DX011 (ip), vehicle: saline",98 % of control
same,T/C,"dose: 2.0 mg/kg/injection, schedule: Q01DX011 (ip), vehicle: saline",32 % of control and 47 % of control
same,T/C,"dose: 4.0 mg/kg/injection, schedule: Q01DX011 (ip), vehicle: saline",15 % of control and 37 % of control
CC(=O)OCC1OC(n2cnc3c(=O)[nH]c(=O)[nH]c32)C(OC(C)=O)C1OC(C)=O (stereo not drawn),T/C,"dose: 30.0 mg/kg/injection, schedule: Q01DX011 (ip), vehicle: saline",101 % of control
same,T/C,"dose: 60.0 mg/kg/injection, schedule: Q01DX011 (ip), vehicle: saline",103 % of control
same,T/C,"dose: 120.0 mg/kg/injection, schedule: Q01DX011 (ip), vehicle: saline",86 % of control
same,T/C,"dose: 240.0 mg/kg/injection, schedule: Q01DX011 (ip), vehicle: saline",112 % of control
CCCCNc1nc(N)nc2c1nnn2CCCC,T/C,"dose: 62.0 mg/kg/injection, schedule: Q01DX011 (ip), vehicle: methylcellulose (MC)",54 % of control
same,T/C,"dose: 125.0 mg/kg/injection, schedule: Q01DX011 (ip), vehicle: methylcellulose (MC)",78 % of control
same,T/C,"dose: 250.0 mg/kg/injection, schedule: Q01DX011 (ip), vehicle: methylcellulose (MC)",45 % of control
